The values that follow come from ChEMBL document CHEMBL3507680, “University of Dundee, Gates Library screen for HepG2 cell viability”.

SMILES strings stand for the structures.

The nature of this data set: Human HepG2 cell viability assay in 384 well format. The data set is classed as toxicity, cell-based. Set-up: dose 125 nL, time 70.5 hour; cytotoxicity at 70.5 h: concentration not given beside the values. The note with it: HepG2 cells, read-out: Inhibition.
Take `Cc1ccc(CNC(=O)c2ccc(=O)n(C)n2)c(OCC2CC2)c1`: the cytotoxicity at 70.5 h was -4.46%.
On to `CCc1nnc(CS(=O)(=O)c2ccc(C)cc2)n1C`, for which the cytotoxicity at 70.5 h is -0.707%.
To `CC(CN1CCOC1=O)NC(=O)c1cccc2cc[nH]c12` (configuration not stated) belongs -3.45%; to `Clc1snnc1CN(Cc1cccs1)C1CC1`, -5.36%; to `CN(Cc1cccs1)Cc1nnsc1Cl`, -4.68%.
With `CCC1(CC)CC(=O)N(CC(O)c2cc(F)ccc2F)C1=O` (configuration not stated), the cytotoxicity at 70.5 h was -4.77%.
Take `Clc1ccc2c(c1)C=C(CNC1CCc3ncnn3C1)CO2` (configuration not stated): the cytotoxicity at 70.5 h was -7.55%.
To `CCc1noc(C(C)N2CCc3c(ncn3C3CC3)C2)n1` (configuration not stated) belongs 28.1%.
Regarding `CC(c1nc(C2CC2)no1)N1CCc2c(ncn2C)C1` (configuration not stated), the cytotoxicity at 70.5 h was 0.478%.
As for `CC(OCC1CC1)C(=O)Nc1cccc(C(=O)Nc2ccncc2)c1` (configuration not stated), the cytotoxicity at 70.5 h is -10.9%.
Take `COc1ccc2c(c1)OCC(CNC1CCc3nc(C)nn3C1)=C2` (configuration not stated): the cytotoxicity at 70.5 h is -8.64%.
Turning to `COc1cc(NC(=O)N(C)C(C2CC2)C2CC2)ncn1`, the cytotoxicity at 70.5 h is -3.68%.
As to `CN(C1CCCCC1)S(=O)(=O)N1CCN(Cc2ccco2)CC1`, the cytotoxicity at 70.5 h is -7.86%.
`CN1CCC(N(Cc2ccccc2)C(=O)c2ccn3ccnc3c2)CC1`: the cytotoxicity at 70.5 h is -2.58%.
`CN(C)c1ccc(NC(=O)c2cccc(N(C)C)c2)nc1`: the cytotoxicity at 70.5 h amounted to 15.4%.
The same measure for `NC1(c2nc(-c3ccccc3)cc(=O)[nH]2)CCCCC1`: -10.8%; for `O=C(CNC(=O)C1CC1)Nc1c(F)cccc1Oc1ccccc1`: -3.31%; for `O=C(CNC(=O)Nc1c(F)cccc1Oc1ccccc1)NC1CC1`: -9.17%.
As for `COCCN(C(=O)c1ccoc1C)c1ccc(C#N)cc1`, the cytotoxicity at 70.5 h was -4.2%.
Turning to `O=C(NCCc1nncn1C1CC1)C1SCCc2ccccc21` (configuration not stated), the cytotoxicity at 70.5 h is -7.17%.
As for `Cc1nc(C(C)(C)NCc2nnc(C(C)C)o2)sc1C`, the cytotoxicity at 70.5 h came out at 1.69%.
Turning to `CC(=O)N1CC(C)CN(Cc2ccon2)c2ccccc21` (configuration not stated), the cytotoxicity at 70.5 h was -4.58%.
Consider `CC(O)CCN(C)S(=O)(=O)Cc1ccc(Cl)c(Cl)c1` (configuration not stated), for which the cytotoxicity at 70.5 h was -3.92%.
Regarding `CC(O)CCN(C)S(=O)(=O)Cc1ccc(Br)cc1` (configuration not stated), the cytotoxicity at 70.5 h came out at 23.3%.
As to `COc1cccc(/C=C/CCN2CCC(C(=O)N3CCCC3)CC2)c1`, the cytotoxicity at 70.5 h was 3.93%.
To `CC(C)N(C)S(=O)(=O)N1CCN(Cc2ccco2)CC1` belongs -5.12%; to `Cc1ccccc1CN1CCCN(S(=O)(=O)N(C)C2CCCCC2)CC1`, -7.92%; to `CC(C)c1ccc(OCCC(=O)N(C)CC(=O)N(C)C)cc1`, 16%.
For the molecule `COc1ccccc1CC(NC(=O)N1CCC[C@@H]1CO)C(C)C` (some centres not stated), the cytotoxicity at 70.5 h was -6.32%.
On to `CN(C1CCCCC1)S(=O)(=O)N1CCN(Cc2ccon2)CC1`, for which the cytotoxicity at 70.5 h is -9.52%.
As for `CCN(CC)CCn1cc(NC(=O)c2ccccc2OC)cn1`, the cytotoxicity at 70.5 h is -12.2%.
Consider `CC1COCCN1C(=O)c1ccc(=O)n(Cc2ccccc2)n1` (configuration not stated), for which the cytotoxicity at 70.5 h was -4.29%.
On to `O=C(NCCOc1ccccc1)c1ccc2c(c1)C(=O)NC2=O`, for which the cytotoxicity at 70.5 h was 3.38%.
To `COC(=O)c1ccc(N2CCN(C(=O)C3CC3)C(C)C2)cc1` (configuration not stated) belongs -5.06%.
With `CCOCCCOC(=O)c1ccc2c(c1)[nH]c(=O)n2C`, the cytotoxicity at 70.5 h was found to be 18.6%.
In the case of `O=C(NCc1nncn1C1CC1)C1(c2ccccc2)CCOCC1`, the cytotoxicity at 70.5 h is -6.33%.
As for `O=C(NCc1nncn1C1CC1)C1(c2ccc(F)cc2)CCCC1`, the cytotoxicity at 70.5 h turned out to be 14.3%.
For the molecule `CC(c1ncc(C(C)(C)C)o1)N1CCN(c2ccncc2)CC1` (configuration not stated), the cytotoxicity at 70.5 h is -2.28%.
`CCCn1nnnc1CSc1nccn1Cc1ccccn1`: the cytotoxicity at 70.5 h is -13.2%.
`CC(c1ncc(C(C)(C)C)o1)N1CCN(Cc2ccncc2)CC1` (configuration not stated): the cytotoxicity at 70.5 h was -12.1%.
As for `COc1ccc(NC(=O)NCC(C)N2CCc3ccccc32)cc1` (configuration not stated), the cytotoxicity at 70.5 h is -11.4%.
`CC(CNC(=O)c1cccc(C#N)c1)N1CCc2ccccc21` (configuration not stated): the cytotoxicity at 70.5 h was -11.4%.
To `Cc1ccc(C(=O)NC2CCCN(c3ncccn3)C2)cn1` (configuration not stated) belongs 19.3%.
Consider `CN(CC(=O)Nc1nc2c(s1)CCCCCC2)C(=O)c1ccco1`, for which the cytotoxicity at 70.5 h was -17.3%.
As to `CNC(=O)NC(=O)C(C)Nc1ccccc1OCCOC` (configuration not stated), the cytotoxicity at 70.5 h was -10.8%.
With `NC(=O)CN(CC(=O)NCc1cccc(Cl)c1)C1CCCC1`, the cytotoxicity at 70.5 h was -11.2%.
To `NC(=O)CN(CC(=O)NCCc1c(F)cccc1F)C1CCCC1` belongs 23.5%; to `Cc1noc(C(C)N2CCN(c3ncnc4ccccc34)CC2)n1` (configuration not stated), -13.6%; to `CCN(CC)c1nc2sc(C(=O)NC(C)(C)C(=O)OC)cc2s1`, 0.56%.
To `CCNc1cc2c(nn1)CCN(C(=O)C1Cc3ccccc3O1)C2` (configuration not stated) belongs -12.9%.
In the case of `Cn1cc(C2CCCN2C(=O)CS(=O)(=O)C2CCCC2)cn1` (configuration not stated), the cytotoxicity at 70.5 h was -8.05%.
As to `CN(C)c1cc2c(nn1)CCN(C(=O)c1cc3c(s1)CCCC3)C2`, the cytotoxicity at 70.5 h was determined as 13.1%.
For `Cc1cccc(NCCNc2ccc(C#N)cn2)n1`, the cytotoxicity at 70.5 h is -5.87%.
With `COc1c(C2CCCN2CCOc2ccccc2C#N)c(C)nn1C` (configuration not stated), the cytotoxicity at 70.5 h is -0.493%.
To `COc1cc(OC)cc(N2CCC(NC(=O)c3ccc[nH]3)CC2)c1` belongs -7.63%.
With `Cn1cccc1C(=O)NC1CCN(c2ccc(OC(F)(F)F)cc2)CC1`, the cytotoxicity at 70.5 h stood at 16.6%.
Regarding `COCCNc1ccccc1CNC(=O)NCc1ccc(C)s1`, the cytotoxicity at 70.5 h is -6.41%.
Regarding `CCOCCN1CCN(CCOC)CC1C` (configuration not stated), the cytotoxicity at 70.5 h was -8.63%.
As to `CCn1cc(C(=O)N2CCCN(c3cccnn3)CC2)c2ccccc21`, the cytotoxicity at 70.5 h amounted to 14.2%.
`COc1ccnc(N2CCCN(c3nc(C4CC4)ns3)CC2)n1`: the cytotoxicity at 70.5 h is -9.55%.
Regarding `CC(Cc1ccsc1)NC(=O)c1cc(N2CCNC2=O)ccc1F` (configuration not stated), the cytotoxicity at 70.5 h was -9.62%.
The same measure for `CN(C)C1CCCN(C(=O)NCCC(C)(C)C)C1` (configuration not stated): 16.4%; for `CCOCCNC1(c2ccc(Cl)cc2)CCOCC1`: 9.63%.
As for `CCC(CC)NC(=O)c1cncc(Br)c1`, the cytotoxicity at 70.5 h was 1.03%.
To `CCC(C)NC(=O)c1cncc(Br)c1` (configuration not stated) belongs -2.39%; to `CN1N=C(C(=O)N2CCN(c3ncccn3)CC2)CCC1=O`, 1.03%.
Take `CC(NC(=O)CNC(=O)OC(C)(C)C)c1ccc(Cl)s1` (configuration not stated): the cytotoxicity at 70.5 h is 10.9%.
Take `COc1ccc2c(c1)CCCN2C(=O)CN1CCOC(CN(C)C)C1` (configuration not stated): the cytotoxicity at 70.5 h is -4.78%.
With `CN(C)C1CCCN(C(=O)NCCNC(=O)C2CCCC2)C1` (configuration not stated), the cytotoxicity at 70.5 h was -1.02%.
To `Cc1cc(CNc2ccc(C(=O)N3CCc4ccccc43)cn2)on1` belongs -1.24%; to `COCc1ccccc1C(=O)NCC(O)c1ccc(Cl)s1` (configuration not stated), 0.31%; to `Cc1ccc(C)c(C(=O)NC2CCC(N3C(=O)CCC3=O)CC2)c1` (configuration not stated), 3.79%.
With `Cc1[nH]ccc1C(=O)NC1CCC(N2C(=O)CCC2=O)CC1` (configuration not stated), the cytotoxicity at 70.5 h is -2.84%.
In the case of `Cc1ccc(F)c(C(=O)NC2CCC(N3C(=O)CCC3=O)CC2)c1` (configuration not stated), the cytotoxicity at 70.5 h is -0.936%.
To `O=C(NC1CCC(N2C(=O)CCC2=O)CC1)c1c[nH]c2ccccc12` (configuration not stated) belongs 10.8%.
As for `Cc1nn(C(C)(C)C)c(=O)n1CC(=O)NCC(F)(F)F`, the cytotoxicity at 70.5 h came to 3.06%.
With `COc1cc(C2(C(=O)N3CCN(CC(C)O)CC3)CC2)ccc1C` (configuration not stated), the cytotoxicity at 70.5 h was 10.5%.
To `Cc1ccc(S(=O)(=O)CCC(=O)N(C)Cc2cnn(C)c2)cc1` belongs -73.6%; to `N#Cc1c(Cl)nsc1NCc1ccnc(OCC(F)(F)F)c1`, -44.2%; to `O=C(CNc1ccccc1Cl)Nc1cc(-n2cnnn2)ccc1F`, -117%.
The same measure for `O=C(CCCOc1ccccc1F)NCCCC(=O)Nc1cn[nH]c1`: -3.66%; for `Cc1cc(C)n(C2CN(CC(=O)N(C)Cc3ccco3)C2)n1`: -6.63%.
As to `Cc1cn2c(n1)CCC(NC(=O)CCOc1cccc(F)c1)C2` (configuration not stated), the cytotoxicity at 70.5 h is -4.07%.
For the molecule `CCOCC(=O)Nc1cccc(Oc2ccccn2)c1`, the cytotoxicity at 70.5 h was -3.31%.
In the case of `COCCN(Cc1cccnc1)S(=O)(=O)c1cccc(F)c1F`, the cytotoxicity at 70.5 h came to 5.02%.
With `Cc1ccc(CN(C)C(=O)Cn2nc(-c3ccc(F)cc3)oc2=O)cc1`, the cytotoxicity at 70.5 h was -7.04%.
In the case of `Cc1ccc(CS(=O)(=O)CC(=O)NCc2ccccc2F)cc1`, the cytotoxicity at 70.5 h is -15.5%.
Regarding `Cc1ccc(C(O)CNC(=O)c2cccnc2O)cc1` (configuration not stated), the cytotoxicity at 70.5 h was -12.1%.
To `CCOc1ncccc1CNC(=O)CN1CCCCCC1=O` belongs 19.7%; to `CC(C)Cc1noc(CN2CCN(C(=O)c3cccs3)CC2)n1`, -11.2%.
Turning to `Cc1cc(=O)n2ncnc2n1CC(O)c1ccccc1` (configuration not stated), the cytotoxicity at 70.5 h is -17.2%.
With `Cc1ccccc1-c1cc(NC(=O)NC2CCC(O)CC2)n(CCO)n1` (configuration not stated), the cytotoxicity at 70.5 h was -3.45%.
On to `CC(NC(=O)c1cc(-c2cccc(Cl)c2)no1)C(=O)N(C)C` (configuration not stated), for which the cytotoxicity at 70.5 h was -17.3%.
On to `Cc1cc(=O)n2ncnc2n1CC(O)c1cc(Cl)ccc1Cl` (configuration not stated), for which the cytotoxicity at 70.5 h was -22.2%.
In the case of `O=C(NC1CC1)c1cc(NC(=O)N2CCSCC2)ccc1Cl`, the cytotoxicity at 70.5 h came to 15.9%.
Take `Cc1cc(=O)n2ncnc2n1CC(O)c1ccccc1F` (configuration not stated): the cytotoxicity at 70.5 h is -10.7%.
To `CC(=O)N1CCN(C(=O)c2cnc(OC(C)C)c(Cl)c2)CC1` belongs -13.6%; to `O=C(Cc1ccc2c(c1)OCO2)N1CCCN(c2nccs2)CC1`, -8.59%.
To `CCc1cc(NCc2cccnc2N2CCCCC2)n2ncnc2n1` belongs 0.666%; to `CC(=O)N1CCCN(C(=O)c2cnc(OC(C)C)c(Cl)c2)CC1`, -11.9%.
Turning to `O=C(Cc1ccc2c(c1)OCO2)N1CCN(c2ccncc2)CC1`, the cytotoxicity at 70.5 h is -9.91%.
Turning to `CC(C)NC(=O)CCN1CCC(C(=O)c2cc(F)ccc2F)CC1`, the cytotoxicity at 70.5 h was -7.21%.
